According to ChEMBL document CHEMBL1165956, “Design, synthesis, and pharmacological evaluation of N-(4-mono and 4,5-disubstituted thiazol-2-yl)-2-aryl-3-(tetrahydro-2H-pyran-4-yl)propanamides as glucokinase activators” (Bioorg Med Chem, 2010):
pEC50: −log10 of the molar value. Blank lines part the entries; values can stand above or below the compound they belong to. Activity calls are given as the source filed them. The calls are words filed in the database; no cut-off is given here.

What was measured:
Hexokinase-4 [1] = molecular target: T1, Hexokinase-4 (Homo sapiens, UniProt P35557); test: Activation of human glucokinase expressed in Escherichia coli BL21(DE3) coexpressing G6PDH by spectrometry; conditions: for pEC50: read-out: EC50
T1 sequence (P35557 whole entry): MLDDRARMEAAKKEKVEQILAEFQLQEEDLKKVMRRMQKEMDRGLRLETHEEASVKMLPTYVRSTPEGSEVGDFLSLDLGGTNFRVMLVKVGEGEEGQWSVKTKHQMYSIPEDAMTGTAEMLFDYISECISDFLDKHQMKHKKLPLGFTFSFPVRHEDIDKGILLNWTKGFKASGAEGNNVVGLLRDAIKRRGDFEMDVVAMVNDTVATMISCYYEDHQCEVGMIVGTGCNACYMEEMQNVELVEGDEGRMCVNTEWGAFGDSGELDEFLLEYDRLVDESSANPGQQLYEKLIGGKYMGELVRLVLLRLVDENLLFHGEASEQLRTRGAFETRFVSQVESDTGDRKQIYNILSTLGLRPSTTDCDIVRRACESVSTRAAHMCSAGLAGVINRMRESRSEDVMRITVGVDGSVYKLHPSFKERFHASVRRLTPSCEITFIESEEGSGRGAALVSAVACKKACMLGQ

[2] = Oral bioavailability in dog; assay type: ADME, organism-based, Canis lupus familiaris; conditions: in vivo
[3] = Oral bioavailability in rat; assay type: ADME, organism-based; conditions: in vivo
Mus musculus [4] = test: Antihyperglycemic activity in diabetic C57BL/6J ob/ob mouse assessed as decrease in blood glucose at 50 mg/kg, po administered as single dose measured after 60 mins relative to control; assay type: functional, organism-based; design: dose 50 mg/kg
Mus musculus [5] = test: Hypoglycemic activity in non-diabetic ICR mouse assessed as decrease in blood glucose at 3 mg/kg, po administered as single dose measured after 120 mins relative to control; assay type: functional, organism-based; design: dose 3 mg/kg
Mus musculus [6] = test: Antihyperglycemic activity in diabetic C57BL/6J ob/ob mouse assessed as decrease in blood glucose at 20 mg/kg, po administered as single dose measured after 120 mins relative to control; assay type: functional, organism-based; design: dose 20 mg/kg
Hepatocyte = test: Induction of glycogen synthesis in Sprague-Dawley rat hepatocytes at 20 uM after 4 hrs relative to control; assay type: functional
Mus musculus [7] = test: Hypoglycemic activity in non-diabetic ICR mouse assessed as decrease in blood glucose at 10 mg/kg, po administered as single dose measured after 240 mins relative to control; assay type: functional, organism-based; design: dose 10 mg/kg
Mus musculus [8] = test: Antihyperglycemic activity in diabetic C57BL/6J ob/ob mouse assessed as decrease in blood glucose at 20 mg/kg, po administered as single dose measured after 180 mins relative to control; assay type: functional, organism-based; design: dose 20 mg/kg
Mus musculus [9] = test: Antihyperglycemic activity in diabetic C57BL/6J ob/ob mouse assessed as decrease in blood glucose at 50 mg/kg, po administered as single dose measured after 180 mins relative to control; assay type: functional, organism-based; design: dose 50 mg/kg
Hexokinase-4 [10] = molecular target: T2, Hexokinase-4 (Rattus norvegicus, UniProt P17712)
T2 sequence (P17712 whole entry): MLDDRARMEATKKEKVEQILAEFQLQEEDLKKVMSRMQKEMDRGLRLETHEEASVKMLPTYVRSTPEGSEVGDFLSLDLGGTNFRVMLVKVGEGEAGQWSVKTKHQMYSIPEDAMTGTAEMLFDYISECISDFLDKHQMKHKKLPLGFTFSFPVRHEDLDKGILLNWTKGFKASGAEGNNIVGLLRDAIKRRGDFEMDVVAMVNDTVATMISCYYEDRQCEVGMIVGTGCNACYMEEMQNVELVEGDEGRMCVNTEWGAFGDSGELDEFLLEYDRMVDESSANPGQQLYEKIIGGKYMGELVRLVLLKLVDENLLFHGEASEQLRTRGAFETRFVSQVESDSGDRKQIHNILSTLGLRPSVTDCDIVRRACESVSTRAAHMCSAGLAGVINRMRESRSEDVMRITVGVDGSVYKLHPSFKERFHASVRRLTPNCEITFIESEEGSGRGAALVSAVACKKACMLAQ
Description: Induction of glucokinase-mediated 2-deoxy-D-[3H]glucose uptake in Sprague-Dawley rat hepatocytes after 4 hrs by liquid scintillation countingl

Mus musculus [11] = test: Antihyperglycemic activity in diabetic C57BL/6J ob/ob mouse assessed as decrease in blood glucose at 50 mg/kg, po administered as single dose measured after 120 mins relative to control; assay type: functional, organism-based; design: dose 50 mg/kg
Mus musculus [12] = test: Hypoglycemic activity in non-diabetic ICR mouse assessed as decrease in blood glucose at 10 mg/kg, po administered as single dose measured after 30 mins relative to control; assay type: functional; design: scale not given: the % may be the effect or the level left
Mus musculus [13] = test: Hypoglycemic activity in non-diabetic ICR mouse assessed as decrease in blood glucose at 3 mg/kg, po administered as single dose measured after 30 mins relative to control; assay type: functional; design: scale not given: the % may be the effect or the level left
Mus musculus [14] = test: Hypoglycemic activity in non-diabetic ICR mouse assessed as decrease in blood glucose at 50 mg/kg, po administered as single dose measured after 240 mins relative to control; assay type: functional, organism-based; design: dose 50 mg/kg
Mus musculus [15] = test: Hypoglycemic activity in non-diabetic ICR mouse assessed as decrease in blood glucose at 50 mg/kg, po administered as single dose measured after 30 mins relative to control; assay type: functional; design: scale not given: the % may be the effect or the level left

pEC50 (Hexokinase-4 [1]): 5.54
SMILES: CN1CCc2nc(NC(=O)C(CC3CCOCC3)c3ccc(S(=O)(=O)C4CC4)cc3)sc2C1 (stereo unspecified)

pEC50 (Hexokinase-4 [1]): 5.93
SMILES: CS(=O)(=O)c1ccc(C(CC2CCOCC2)C(=O)Nc2nc(-c3ccc(F)cc3)cs2)cc1 (stereo unspecified)

pEC50 (Hexokinase-4 [1]): 5.33
SMILES: O=C1CSC(NC(=O)C(CC2CCOCC2)c2ccc(S(=O)(=O)C3CC3)cc2)=N1 (stereo unspecified)

pEC50 (Hexokinase-4 [1]): 6.49
SMILES: CC(C)c1nc(NC(=O)C(CC2CCOCC2)c2ccc(S(=O)(=O)C3CC3)cc2)sc1Br (stereo unspecified)

SMILES: CC(C)Cc1csc(NC(=O)C(CC2CCOCC2)c2ccc(S(C)(=O)=O)cc2)n1 (stereo unspecified)
pEC50 (Hexokinase-4 [1]): 6.45

EC50 (Hexokinase-4 [1]): Not Active
SMILES: CS(=O)(=O)c1ccc(C(CC2CCOCC2)C(=O)Nc2nc3cc(F)ccc3s2)cc1 (stereo unspecified)

EC50 (Hexokinase-4 [1]): Not Active
SMILES: O=C1N=C(NC(=O)C(CC2CCOCC2)c2ccc(S(=O)(=O)C3CC3)cc2)S/C1=C\c1ccccc1 (stereo unspecified)

SMILES: O=C(Nc1nc2c(s1)CCC2)C(CC1CCOCC1)c1ccc(S(=O)(=O)C2CC2)cc1 (stereo unspecified)
pEC50 (Hexokinase-4 [1]): 7.10

EC50 (Hexokinase-4 [1]): Not Active
SMILES: Cc1nc(NC(=O)C(CC2CCOCC2)c2ccc(S(C)(=O)=O)cc2)sc1C(C)C (stereo unspecified)

SMILES: CC(C)c1csc(NC(=O)C(CC2CCOCC2)c2ccc(S(C)(=O)=O)cc2)n1 (stereo unspecified)
pEC50 (Hexokinase-4 [1]): 6.51

bioavailability [2]: 100%
bioavailability [3]: 90%
SMILES: COC[C@H](C)Oc1cc(O[C@@H](C)Cc2ccccc2)cc(C(=O)Nc2ccc(C(=O)O)cn2)c1

pEC50 (Hexokinase-4 [1]): 5.87
SMILES: CS(=O)(=O)c1ccc(C(CC2CCOCC2)C(=O)Nc2nc(C3CC3)cs2)cc1 (stereo unspecified)

pEC50 (Hexokinase-4 [1]): 5.54
SMILES: Cc1nc(NC(=O)C(CC2CCOCC2)c2ccc(S(C)(=O)=O)cc2)sc1C (stereo unspecified)

SMILES: CS(=O)(=O)c1ccc(C(CC2CCOCC2)C(=O)Nc2nc(-c3ccccc3)cs2)cc1 (stereo unspecified)
pEC50 (Hexokinase-4 [1]): 6.14

pEC50 (Hexokinase-4 [1]): 6.00
SMILES: CCc1csc(NC(=O)C(CC2CCOCC2)c2ccc(S(C)(=O)=O)cc2)n1 (stereo unspecified)

pEC50 (Hexokinase-4 [1]): 6.80
SMILES: C=C(C)c1csc(NC(=O)C(CC2CCOCC2)c2ccc(S(=O)(=O)C3CC3)cc2)n1 (stereo unspecified)

pEC50 (Hexokinase-4 [1]): 5.98
SMILES: COc1ccc(-c2csc(NC(=O)C(CC3CCOCC3)c3ccc(S(C)(=O)=O)cc3)n2)cc1 (stereo unspecified)

EC50 (Hexokinase-4 [1]): Not Active
SMILES: CC(C)/C=C1\SC(NC(=O)C(CC2CCOCC2)c2ccc(S(=O)(=O)C3CC3)cc2)=NC1=O (stereo unspecified)

SMILES: CC(C)c1csc(NC(=O)[C@H](CC2CCOCC2)c2ccc(S(=O)(=O)C3CC3)cc2)n1
Activity (Mus musculus [4]): Active
Activity (Mus musculus [5]): Active
Activity (Mus musculus [6]): Active
Activity (Hepatocyte): 83.7%
Activity (Mus musculus [7]): Active
Activity (Mus musculus [8]): Active
Activity (Mus musculus [9]): Active
pEC50 (Hexokinase-4 [10]): 7.59
Activity (Mus musculus [11]): Active
Activity (Mus musculus [12]): 33.9%
Activity (Mus musculus [13]): 12.7%
Activity (Mus musculus [14]): Active
Activity (Mus musculus [15]): 40.7%

SMILES: CC(C)c1csc(NC(=O)[C@H](CC2CCOCC2)c2ccc(S(C)(=O)=O)cc2)n1
pEC50 (Hexokinase-4 [1]): 6.48

pEC50 (Hexokinase-4 [1]): 5.53
SMILES: CC(C)(C)c1csc(NC(=O)C(CC2CCOCC2)c2ccc(S(C)(=O)=O)cc2)n1 (stereo unspecified)

EC50 (Hexokinase-4 [1]): Not Active
SMILES: CC(C)c1nc(NC(=O)C(CC2CCOCC2)c2ccc(S(=O)(=O)C3CC3)cc2)sc1I (stereo unspecified)

pEC50 (Hexokinase-4 [1]): 5.77
SMILES: CS(=O)(=O)c1ccc(C(CC2CCOCC2)C(=O)Nc2nccs2)cc1 (stereo unspecified)
